Assay results as given in US20130345218A1 (Vertex Pharmaceuticals Incorporated, priority 2010, published 2013).
Where two headings read alike, the source gives them in different places.

How the values were obtained:
[1] = test system: influenza A virus (A/PR/8/34); experiment: microbe, parasite or virus in culture; type: cell-based; details: Influenza A virus, PR/8, MDCK, MDCK cells
[2] = test system: influenza A virus (A/PR/8/34) minus-strand viral RNA; experiment: microbe, parasite or virus in culture; type: cell-based; details: Influenza A virus, PR/8
[3] = test system: influenza infection; experiment: Influenza therapeutic mouse model (survival, body weight, whole body plethysmography); type: in vivo; details: Balb/c mice, dosing @ 48 hours post infection with 30 mg/kg BID X 10 days
[4] = 72 h, mean IC50 (mean all), A/PR/8/34, 72 hours, read-out: Flu, MDCK IC50
[5] = mean EC50 (mean all), viral RNA by bDNA, read-out: bDNA EC50

CN(C)C(=O)N[C@@H]1CCC[C@H](Nc2nc(-c3c[nH]c4ncc(F)cc34)c(F)cc2F)C1 [Compound I-17, 3-((1R,3S)-3-((3,5-difluoro-6-(5-fluoro-1H-pyrrolo[2,3-b]pyridin-3-yl)pyridin-2-yl)amino)cyclohexyl)-1,1-dimethylurea]
IC50 [1, 4]: < 3.3 µM | EC50 [2, 5]: < 3.3 µM

Cn1cnc(C(=O)N[C@@H]2CCC[C@H](Nc3nc(-c4c[nH]c5ncc(F)cc45)c(F)cc3F)C2)c1 [Compound I-18, N-((1R,3S)-3-((3,5-difluoro-6-(5-fluoro-1H-pyrrolo[2,3-b]pyridin-3-yl)pyridin-2-yl)-amino)cyclohexyl)-1-methyl-1H-imidazole-4-carboxamide]
IC50 [1, 4]: < 3.3 µM | EC50 [2, 5]: < 3.3 µM

O=C(N[C@@H]1CCC[C@H](Nc2nc(-c3c[nH]c4ncc(F)cc34)c(C(F)(F)F)cc2F)C1)N1CCCC1 [Compound I-19]
IC50 [1, 4]: < 3.3 µM | EC50 [2, 5]: < 3.3 µM

O=C(N[C@H]1CCC[C@@H](Nc2nc(-c3c[nH]c4ncc(F)cc34)c(C(F)(F)F)cc2F)C1)N1CCOCC1 [Compound I-21]
IC50 [1, 4]: < 3.3 µM | EC50 [2, 5]: < 3.3 µM

O=C(N[C@@H]1CCC[C@H](Nc2nc(-c3c[nH]c4ncc(F)cc34)c(C(F)(F)F)cc2F)C1)N1CCOCC1 [Compound I-22, N-[(1R,3S)-3-[[3-fluoro-6-(5-fluoro-1H-pyrrolo[2,3-b]pyridin-3-yl)-5-(trifluoro-methyl)-2-pyridyl]amino]cyclohexyl]morpholine-4-carboxamide]
IC50 [1, 4]: < 3.3 µM | EC50 [2, 5]: < 3.3 µM

N#CC1(C(=O)N[C@@H]2CCC[C@H](Nc3nc(-c4c[nH]c5ncc(F)cc45)c(F)cc3F)C2)CC1 [Compound I-23]
IC50 [1, 4]: < 3.3 µM | EC50 [2, 5]: < 3.3 µM

O=C(N[C@@H]1CCC[C@H](Nc2nc(-c3c[nH]c4ncc(F)cc34)c(F)cc2F)C1)N1CC[C@H](F)C1 [Compound I-24, (S)—N-((1R,3S)-3-((3,5-difluoro-6-(5-fluoro-1H-pyrrolo[2,3-b]pyridin-3-yl)pyridin-2-yl)-amino)cyclohexyl)-3-fluoropyrrolidine-1-carboxamide]
IC50 [1, 4]: < 3.3 µM | EC50 [2, 5]: < 3.3 µM

O=C(N[C@@H]1CCC[C@H](Nc2nc(-c3c[nH]c4ncc(F)cc34)c(F)cc2F)C1)N1CCC(F)(F)C1 [Compound I-25, N-((1R,3S)-3-((3,5-difluoro-6-(5-fluoro-1H-pyrrolo[2,3-b]pyridin-3-yl)pyridin-2-yl)-amino)cyclohexyl)-3,3-difluoropyrrolidine-1-carboxamide]
IC50 [1, 4]: < 3.3 µM | EC50 [2, 5]: < 3.3 µM

O=C(O)[C@@H]1C2CCC(CC2)[C@H]1Nc1nc(-c2c[nH]c3ncc(F)cc23)c(F)cc1F [Compound I-26]
IC50 [1, 4]: < 3.3 µM | EC50 [2, 5]: < 3.3 µM

O=C(O)[C@H]1C2CCC(CC2)[C@@H]1Nc1nc(-c2c[nH]c3ncc(F)cc23)c(F)cc1F [Compound I-28, (2S,3S)-3-((3,5-difluoro-6-(5-fluoro-1H-pyrrolo[2,3-b]pyridin-3-yl)pyridin-2-yl)amino)bicyclo[2.2.2]octane-2-carboxylic acid]
IC50 [1, 4]: < 3.3 µM | IC50 ([1]; CPE assay, A/PR/8/34, read-out: IC50): 0.005 µM | EC50 ([2]; bDNA assay, read-out: EC50): 0.005 µM | EC50 [2, 5]: < 3.3 µM | Percent Weight Loss (Day 8) ([3]; post challenge day 8): 24.8% | Percent Survival ([3]; scored for 21 days): 100% | WBP (Penh; Day 6) ([3]; whole body plethysmography): 1.84

COC(=O)[C@@H]1C2CCC(CC2)[C@H]1Nc1nc(-c2c[nH]c3ncc(Cl)cc23)c(F)cc1F [Compound I-31]
IC50 [1, 4]: ≥ 3.3 µM | EC50 [2, 5]: > 3.3 µM

O=C(O)[C@@H]1C2CCC(CC2)[C@H]1Nc1nc(-c2c[nH]c3ncc(Cl)cc23)c(F)cc1F [Compound I-32]
IC50 [1, 4]: < 3.3 µM | EC50 [2, 5]: < 3.3 µM

COC(=O)[C@H]1C2CCC(CC2)[C@@H]1Nc1nc(-c2c[nH]c3ncc(Cl)cc23)c(F)cc1F [Compound I-33, (2S,3S)-methyl 3-((6-(5-chloro-1H-pyrrolo[2,3-b]pyridin-3-yl)-3,5-difluoropyridin-2-yl)amino)bicyclo[2.2.2]octane-2-carboxylate]
IC50 [1, 4]: < 3.3 µM | EC50 [2, 5]: < 3.3 µM

O=C(O)[C@H]1C2CCC(CC2)[C@@H]1Nc1nc(-c2c[nH]c3ncc(Cl)cc23)c(F)cc1F [Compound I-34, (2S,3S)-3-((6-(5-chloro-1H-pyrrolo[2,3-b]pyridin-3-yl)-3,5-difluoropyridin-2-yl)amino)-bicyclo[2.2.2]octane-2-carboxylic acid]
IC50 [1, 4]: < 3.3 µM | EC50 [2, 5]: < 3.3 µM

O=C(O)[C@H]1C2CCC(CC2)[C@@H]1Nc1cc(C(F)(F)F)cc(-c2c[nH]c3ncc(F)cc23)n1 [Compound I-40]
IC50 [1, 4]: < 3.3 µM | EC50 [2, 5]: < 3.3 µM

O=C(O)[C@@H]1C2CCC(CC2)[C@H]1Nc1cc(C(F)(F)F)cc(-c2c[nH]c3ncc(F)cc23)n1 [Compound I-41]
IC50 [1, 4]: < 3.3 µM | EC50 [2, 5]: < 3.3 µM

N#Cc1cc(F)c(N[C@H]2CCC[C@@H](NC(=O)N3CC[C@H](F)C3)C2)nc1-c1c[nH]c2ncc(F)cc12 [Compound I-43, (S)—N-((1R,3S)-3-((5-cyano-3-fluoro-6-(5-fluoro-1H-pyrrolo[2,3-b]pyridin-3-yl)pyridin-2-yl)amino)cyclohexyl)-3-fluoropyrrolidine-1-carboxamide]
IC50 [1, 4]: < 3.3 µM | EC50 [2, 5]: < 3.3 µM

O=C(O)[C@@H]1C2CCC(CC2)[C@H]1Nc1cnnc(-c2c[nH]c3ncc(F)cc23)n1 [Compound I-45]
IC50 [1, 4]: ≥ 3.3 µM | EC50 [2, 5]: > 3.3 µM

O=C(O)[C@H]1C2CCC(CC2)[C@@H]1Nc1cnnc(-c2c[nH]c3ncc(F)cc23)n1 [Compound I-46]
IC50 [1, 4]: < 3.3 µM | EC50 [2, 5]: < 3.3 µM

O=C(N[C@@H]1CCC[C@H](Nc2nc(-c3c[nH]c4ncc(F)cc34)c(F)cc2F)C1)c1ccsc1 [Compound I-47, N-((1R,3S)-3-((3,5-difluoro-6-(5-fluoro-1H-pyrrolo[2,3-b]pyridin-3-yl)pyridin-2-yl)amino)cyclohexyl)thiophene-3-carboxamide]
IC50 [1, 4]: < 3.3 µM | EC50 [2, 5]: < 3.3 µM

O=C(N[C@@H]1CCC[C@H](Nc2nc(-c3c[nH]c4ncc(F)cc34)c(F)cc2F)C1)c1csc(Cl)c1 [Compound I-48, 5-chloro-N-((1R,3S)-3-((3,5-difluoro-6-(5-fluoro-1H-pyrrolo[2,3-b]pyridin-3-yl)pyridin-2-yl)amino)cyclohexyl)thiophene-3-carboxamide]
IC50 [1, 4]: < 3.3 µM | EC50 [2, 5]: < 3.3 µM
